Here are results for one molecule from publication PMC8963105, “A Novel Modulator of the Renin–Angiotensin System, Benzoylaconitine, Attenuates Hypertension by Targeting ACE/ACE2 in Enhancing Vasodilation and Alleviating Vascular Inflammation” (Frontiers in Pharmacology, 2022).

Experiment [1] has as its system spontaneously hypertension rats (SHRs). The experiment in a line: acute experiment: real-time blood pressure after i.v. injection in SHRs. It counts as in vivo, rat. As to the method:
The SHRs were surgically implanted with a catheter via the left femoral artery, vein, and stomach after anesthetizing with 2% pentobarbital sodium (40 mg kg^−1 i.p.,). A pressure sensor was inserted into the terminal of the arterial catheter and connected to a PowerLab system (ADInstruments, New South Wales, Australia) for real-time blood pressure monitoring.
(§1) All three MDAs (BAC, BMC, and BHC) were purchased from Nature-Standard Co., Ltd. (Shanghai, China) and their purities were all over 98%. The anti-hypertensive effects of MDAs were studied in both acute and chronic experiments. The 16-week-old SHRs were used in animal experiments, and each group had six rats. In the acute experiment, drug administration was via i.v. injection. For i.v. injection, the animals were randomly assigned into four groups: vehicle (0.1% DMSO–0.9% salt solution, n = 6), low-dose group (0.6 mg kg^−1 body weight, n = 6), medium-dose group (2 mg kg^−1 body weight, n = 6), and high-dose group (6 mg kg^−1 body weight, n = 6). The drug was administered using a venous catheter. In chronic experiments, the animals were randomly assigned into five groups: vehicle (5% Tween 80–0.9% salt solution, n = 6), captopril group (5 mg kg^−1 body weight, n = 6), low-dose group (3 mg kg^−1 body weight, n = 6), medium-dose group (10 mg kg^−1 body weight, n = 6), and high-dose group (30 mg kg^−1 body weight, n = 6). Oral administration with drug or 5% Tween 80–0.9% salt solution was carried out once a day, and continued for 14 days. The drugs were dissolved in 0.1% DMSO–0.9% salt solution for intravenous injection and in 5% Tween 80–0.9% salt solution for oral administration. Blood pressure was recorded in real time.
Real-time blood pressure level was monitored after drug treatment in the acute and chronic experiments. All animals were surgically implanted with a catheter in the left femoral artery. After connection to the monitor, all animals were placed at room temperature of 25°C for 0.5–1 h and the average blood pressure value was calculated based on a real-time blood pressure curve (10 s of every 30 s).

In experiment [2] the test system is IL-6. The experiment in a line: serum IL-6 by ELISA in SHRs. Type of experiment: in vivo, rat. As to conditions: oral 14 days. The source says:
(§2) All three MDAs (BAC, BMC, and BHC) were purchased from Nature-Standard Co., Ltd. (Shanghai, China) and their purities were all over 98%. The anti-hypertensive effects of MDAs were studied in both acute and chronic experiments. The 16-week-old SHRs were used in animal experiments, and each group had six rats. In the acute experiment, drug administration was via i.v. injection. For i.v. injection, the animals were randomly assigned into four groups: vehicle (0.1% DMSO–0.9% salt solution, n = 6), low-dose group (0.6 mg kg^−1 body weight, n = 6), medium-dose group (2 mg kg^−1 body weight, n = 6), and high-dose group (6 mg kg^−1 body weight, n = 6). The drug was administered using a venous catheter. […] Blood pressure was recorded in real time.
(§3) Blood samples were collected from the left femoral artery of rats at the end point, followed by centrifugation at 1,000 × g for 15 min at 4°C. […] The concentrations of circulating ACE, ACE2, Ang I, Ang II, Ang (1–7), TNF-α, and IL-6 in serum were measured using the ELISA kits [ACE, cat#xy-R2401c, X-Y Biotechnology, Shanghai, China; ACE2, cat#xy-ACE2-Ra, X-Y Biotechnology; Ang I, cat#xy-E12541, X-Y Biotechnology; Ang II, cat#xy-R1430c, X-Y Biotechnology; Ang (1–7), cat#xy-Ang1-7-Ra, X-Y Biotechnology; TNF-α, cat#GM1149, Servicebio, Shanghai, China; IL-6, cat#GM1154, Servicebio] according to the manufacturer’s instructions. […]
(In an ELISA, binding on a coated surface is turned into a signal by an enzyme label.)

The test system of experiment [3] is ACE2. Description: ACE2 protein expression in HUVECs (Western blot, immunofluorescence). It counts as cell-based, human. As to conditions: HUVECs, 25, 50, 100 μM, 24 h. An excerpt: Human umbilical vein endothelial cells (HUVECs) were isolated from umbilical cords as previously described ([Jaffe et al., 1973]). They were purchased from ATCC (cat# CRL-1444, Manassas, VA, United States) and cultured in endothelial cell medium (ECM, ScienCell, Carlsbad, CA, United States) supplemented with 5% FBS, 1% endothelial cell growth supplement, and 1% antibiotics (Sigma, St. Louis, MO, United States). Cells harvested between the third and tenth passages were used in the experiments. Cells were cultured until they were ∼80% confluent. […]
After treatment with different concentrations of BAC (Control, DMSO, 25, 50, and 100 μM, dissolved in 0.1% DMSO–DMEM) for 24 h, the cells were washed with PBS three times, fixed in 4% paraformaldehyde for 20 min, permeabilized with 0.3% Triton X-100 for 20 min, and then blocked with 5% BSA for 30 min at room temperature of 25°C. […] The samples were analyzed using a confocal laser scanning microscope (Zeiss LSM 510 META, Oberkochen, Germany).
(§4) The cell samples and tissue sample were collected and placed in ice rapidly. […] Protein concentration in cell lysates was measured using a Bio-Rad DC Protein Assay Kit […]. […]
In general terms: A western blot detects proteins with antibodies after separation by electrophoresis.

The test system of experiment [4] is COX-2. Description: COX-2 expression in aorta of SHRs (Western blot). Type of experiment: in vivo, rat. As to conditions: oral 14 days.
Text: as §1, with “The drugs were dissolved in 0.1% DMSO–0.9% salt solution for intravenous injection and in 5% Tween 80–0.9% salt solution for oral administration.” left out
as §4

Experiment [5] concerns ACE2. Description: serum ACE2 by ELISA in SHRs after 14-day oral administration. It counts as in vivo, rat. As to conditions: oral 14 days.
Text: as §2, §3

With `CCN1CC2(COC)C(O)CC(OC)C34C5CC6(O)C(OC)C(O)C(O)(C5C6OC(=O)c5ccccc5)C(C(OC)C23)C14` (stereo not shown) [BAC, Benzoylaconitine], the “anti-hypertensive effect (in words)” value in experiment [1] (acute experiment, i.v. injection 0.6–6 mg kg^−1) is on record as “observable anti-hypertensive effects”. For the same molecule, the “duration of anti-hypertensive effect” value in experiment [1] (i.v. injection, 0.6 mg kg^−1) is given as “at least 30 min”. Moreover, the “lowering of SBP, DBP, and MAP” value in experiment [1] (i.v. injection, lowest dose 0.6 mg kg^−1, 1–5 min) is “more than 20 mmHg”. Further, the “level of IL-6 in serum” value in experiment [2] is “reduced”. For the same molecule, the “protein expression of ACE2” value in experiment [3] was “does not affect”. Further, in experiment [4], the “expression of COX-2” value was “downregulated”. For the same molecule, the “level of ACE2 in blood” value in experiment [5] is “did not change”.
